We go through 13 compounds from patent publication US11053239B2, “Compounds as BLC-2-selective apoptosis-inducing agents” (Fochon Pharmaceuticals, Ltd., priority 2017, dated 2021).

For one experiment, the system named is DOHH2 cells. Briefly: Cell proliferation assay (MTS), DOHH2 cells. It is filed as cell-based. The note with it: Homo sapiens, DOHH-2, 120 h, DOHH2 (DSMZ ACC 47) cell proliferation, 5000 cells/well, 120 h, MTS; mechanism-based readout of Bcl-2 inhibition; read-out: DOHH2 IC50. The source says:
(§1) MTS testing kit was purchased from Promega. The RPMI-1640, Fetal bovine serum and Penicillin-Streptomycin were purchased from Gibco. Dimethyl sulfoxide (DMSO) was purchased from Sigma.
(§2) To investigate whether a compound is able to inhibit the activity of Bcl-2 in cells, a mechanism-based assay using DOHH2 (DSMZ No.® ACC 47) and RS4; 11 (ATCC® CRL-1873™) cell was developed. In this assay, inhibition of Bcl-2 was detected by the inhibition of DOHH2 and RS4; 11 cells proliferation. DOHH2 and RS4; 11 cells were cultured in culture flasks to 40-80% confluence in RPMI-1640 plus 10% fetal bovine serum. Cells were collected and plated onto 96-well plates at desired cell density (DOHH2: 5000 cells/well; RS4; 11: 30000 cells/well). Plates were incubated overnight at 37° C., with 5% CO2 to adhere. Compounds were added to the plates, and the final compound concentrations were 10000, 3333, 1111, […], 124, 41, 14, 4.6 and 1.5 nM. Plates plated with DOHH2 or RS4; 11 cells were placed at 37° C., with 5% CO2 for 120 h (DOHH2) or 72 h (RS4; 11) respectively. 20 μl MTS/100 μl medium mixture solution were added to each well and incubate the plates for exactly 2 hours. The reaction was stopped by adding 25 μl 10% SDS per well. Measure absorbance at 490 nm and 650 nm (reference wavelength). ICso was calculated using GraphPad Prism 5.0.

The next experiment concerns RS4; 11 cells. Briefly: Cell proliferation assay (MTS), RS4; 11 cells. Format: cell-based. Conditions: Homo sapiens, RS4-11, 72 h, RS4; 11 (ATCC CRL-1873) cell proliferation, 30000 cells/well, 72 h, MTS; mechanism-based readout of Bcl-2 inhibition; read-out: RS4; 11 IC50.
From the text: as §1, §2

`CCN=S1(=O)CCN(C[C@H](C)Nc2ccc(S(=O)(=O)NC(=O)c3ccc(N4CCN(CC5=C(c6ccc(Cl)cc6)CC(C)(C)CC5)CC4)cc3Oc3cnc4[nH]ccc4c3)cc2[N+](=O)[O-])CC1` [Example 38, (S)-((1H-pyrrolo[2,3-b]pyridin-5-yl)oxy)-4-(4-((4′-chloro-5,5-dimethyl-3,4,5,6-tetrahydro-[1,1′-biphenyl]-2-yl)methyl)piperazin-1-yl)-N-((4-((1-(1-(ethylimino)-1-oxido-1λ^6-thiomorpholino)propan-2-yl)amino)-3-nitrophenyl)sulfonyl) benzamide]: the IC50 in the experiment on DOHH2 cells was 108 nM; in the experiment with RS4; 11 cells, 28 nM.

With `CC1(C)CCC(CN2CCN(c3ccc(C(=O)NS(=O)(=O)c4ccc(NCC5CCC(N=S6(=O)CCOCC6)CC5)c(S(=O)(=O)C(F)(F)F)c4)c(Oc4cnc5[nH]ccc5c4)c3)CC2)=C(c2ccc(Cl)cc2)C1` (centres unmarked) [Example 55, 2-((1H-pyrrolo[2,3-b]pyridin-5-yl)oxy)-4-(4-((4′-chloro-5,5-dimethyl-3,4,5,6-tetrahydro-[1,1′-biphenyl]-2-yl)methyl)piperazin-1-yl)-N-((4-(((4-((4-oxido-1,4λ^6-oxathian-4-ylidene)amino)cyclohexyl)methyl)amino)-3-((trifluoromethyl)sulfonyl)phenyl)sulfonyl) benzamide], the IC50 came to 346 nM in the experiment with DOHH2 cells and 231 nM in the experiment with RS4; 11 cells.

For `CC(C)OC(=O)N=S1(=O)CCN(CC[C@H](C)Nc2ccc(S(=O)(=O)NC(=O)c3ccc(N4CCN(CC5=C(c6ccc(Cl)cc6)CC(C)(C)CC5)CC4)cc3Oc3cnc4[nH]ccc4c3)cc2[N+](=O)[O-])CC1` [Example 86, isopropyl (S)-(4-(3-((4-(N-(2-((1H-pyrrolo[2,3-b]pyridin-5-yl)oxy)-4-(4-((4′-chloro-5,5-dimethyl-3,4,5,6-tetrahydro-[1,1′-biphenyl]-2-yl)methyl)piperazin-1-yl)benzoyl)sulfamoyl)-2-nitrophenyl)amino)butyl)-1-oxido-1λ^6-thiomorpholin-1-ylidene) carbamate], the IC50 in the experiment with DOHH2 cells came to 35 nM; in the experiment with RS4; 11 cells, 23 nM.

For the compound `CC1(C)CCC(CN2CCN(c3ccc(C(=O)NS(=O)(=O)c4ccc(NCC5(F)CCC(N=S(C)(C)=O)CC5)c([N+](=O)[O-])c4)c(Oc4cnc5[nH]ccc5c4)c3)CC2)=C(c2ccc(Cl)cc2)C1` (centres unmarked) [Example 58, 2-((1H-pyrrolo[2,3-b]pyridin-5-yl)oxy)-4-(4-((4′-chloro-5,5-dimethyl-3,4,5,6-tetrahydro-[1,1′-biphenyl]-2-yl)methyl)piperazin-1-yl)-N-((4-(((4-((dimethyl(oxo)-λ^6-sulfanylidene)amino)-1-fluorocyclohexyl)methyl)amino)-3-nitrophenyl)sulfonyl)benzamide], the IC50 in the experiment with DOHH2 cells amounted to 16 nM; with RS4; 11 cells it was 6 nM.

Turning to `C[C@@H](CN1CCP(C)(=O)CC1)Nc1ccc(S(=O)(=O)NC(=O)c2ccc(N3CCN(CC4=C(c5ccc(Cl)cc5)CC(C)(C)CC4)CC3)cc2Oc2cnc3[nH]ccc3c2)cc1S(=O)(=O)C(F)(F)F` [Example 49, (S)-2-((1H-pyrrolo[2,3-b]pyridin-5-yl)oxy)-4-(4-((4′-chloro-5,5-dimethyl-3,4,5,6-tetrahydro-[1,1′-biphenyl]-2-yl)methyl)piperazin-1-yl)-N-((4-((1-(4-methyl-4-oxido-1,4-azaphosphinan-1-yl)propan-2-yl)amino)-3-((trifluoromethyl)sulfonyl)phenyl)sulfonyl)benzamide], the IC50 stood at 107 nM in the experiment with DOHH2 cells and 54 nM in the experiment with RS4; 11 cells.

`CC1(C)CCC(CN2CCN(c3ccc(C(=O)NS(=O)(=O)c4ccc(NCCN5CCS(=O)(=NC6CC6)CC5)c([N+](=O)[O-])c4)c(Oc4cnc5[nH]ccc5c4)c3)CC2)=C(c2ccc(Cl)cc2)C1` [Example 35, 2-((1H-pyrrolo[2,3-b]pyridin-5-yl)oxy)-4-(4-((4′-chloro-5,5-dimethyl-3,4,5,6-tetrahydro-[1,1′-biphenyl]-2-yl)methyl)piperazin-1-yl)-N-((4-((2-(1-(cyclopropylimino)-1-oxido-1λ^6-thiomorpholino)ethyl)amino)-3-nitrophenyl)sulfonyl)benzamide]: the IC50 with DOHH2 cells stood at 181 nM; in the experiment with RS4; 11 cells, 60 nM.

On to `CCC(=O)N=S1(=O)CCN(C[C@H](C)Nc2ccc(S(=O)(=O)NC(=O)c3ccc(N4CCN(CC5=C(c6ccc(Cl)cc6)CC(C)(C)CC5)CC4)cc3Oc3cnc4[nH]ccc4c3)cc2[N+](=O)[O-])CC1` [Example 65, (S)-2-((1H-pyrrolo[2,3-b]pyridin-5-yl)oxy)-4-(4-((4′-chloro-5,5-dimethyl-3,4,5,6-tetrahydro-[1,1′-biphenyl]-2-yl)methyl)piperazin-1-yl)-N-((3-nitro-4-((l-(1-oxido-1-(propionylimino)-1λ^6-thiomorpholino)propan-2-yl)amino)phenyl)sulfonyl) benzamide], for which the IC50 in the experiment on DOHH2 cells was 31 nM; in the experiment on RS4; 11 cells, 11 nM.

For `COC(=O)N=S1(=O)CCN(CCNc2ccc(S(=O)(=O)NC(=O)c3ccc(N4CCN(CC5=C(c6ccc(Cl)cc6)CC(C)(C)CC5)CC4)cc3Oc3cnc4[nH]ccc4c3)cc2[N+](=O)[O-])CC1` [Example 43, methyl (4-(2-((4-(N-(2-((1H-pyrrolo[2,3-b]pyridin-5-yl)oxy)-4-(4-((4′-chloro-5,5-dimethyl-3,4,5,6-tetrahydro-[1,1′-biphenyl]-2-yl)methyl)piperazin-1-yl)benzoyl)sulfamoyl)-2-nitrophenyl)amino)ethyl)-1-oxido-1λ^6-thiomorpholin-1-ylidene) carbamate], the values for the IC50 in the experiment with DOHH2 cells and with RS4; 11 cells were 271 nM and 102 nM, respectively.

Turning to `CCS(=O)(CC)=NC1CCC(CNc2ccc(S(=O)(=O)NC(=O)c3ccc(N4CCN(CC5=C(c6ccc(Cl)cc6)CC(C)(C)CC5)CC4)cc3Oc3cnc4[nH]ccc4c3)cc2[N+](=O)[O-])CC1` (centres unmarked) [Example 9A, 2-((1H-pyrrolo[2,3-b]pyridin-5-yl)oxy)-4-(4-((4′-chloro-5,5-dimethyl-3,4,5,6-tetrahydro-[1,1′-biphenyl]-2-yl)methyl)piperazin-1-yl)-N-((4-((((1r,4r)-4-((diethyl(oxo)-λ^6-sulfanylidene)amino)cyclohexyl)methyl)amino)-3-nitrophenyl)sulfonyl)benzamide], the IC50 was found to be 67 nM in the experiment with DOHH2 cells and 4 nM with RS4; 11 cells.

On to `CC1(C)CCC(CN2CCN(c3ccc(C(=O)NS(=O)(=O)c4ccc(NCC5CCS(=O)(=NC6CC6)CC5)c([N+](=O)[O-])c4)c(Oc4cnc5[nH]ccc5c4)c3)CC2)=C(c2ccc(Cl)cc2)C1` (centres unmarked) [Example 5, 2-((1H-pyrrolo[2,3-b]pyridin-5-yl)oxy)-4-(4-((4′-chloro-5,5-dimethyl-3,4,5,6-tetrahydro-[1,1′-biphenyl]-2-yl)methyl)piperazin-1-yl)-N-((4-(((1-(cyclopropylimino)-1-oxidohexahydro-1λ^6-thiopyran-4-yl)methyl)amino)-3-nitrophenyl)sulfonyl)benzamide], for which the IC50 in the experiment with DOHH2 cells came to 92 nM; in the experiment with RS4; 11 cells, 43 nM.

As for `CCN=S1(=O)CCN(CCNc2ccc(S(=O)(=O)NC(=O)c3ccc(N4CCN(CC5=C(c6ccc(Cl)cc6)CC(C)(C)CC5)CC4)cc3Oc3cnc4[nH]ccc4c3)cc2[N+](=O)[O-])CC1` [Example 34, 2-((1H-pyrrolo[2,3-b]pyridin-5-yl)oxy)-4-(4-((4′-chloro-5,5-dimethyl-3,4,5,6-tetrahydro-[1,1′-biphenyl]-2-yl)methyl)piperazin-1-yl)-A,-((4-((2-(1-(ethylimino)-1-oxido-1λ^6-thiomorpholino)ethyl)amino)-3-nitrophenyl)sulfonyl) benzamide], the results for the IC50 in the experiment with DOHH2 cells and in the experiment on RS4; 11 cells were 38 nM and 106 nM, respectively.

`CC1(C)CCC(CN2CCN(c3ccc(C(=O)NS(=O)(=O)c4ccc(NC(CF)CN5CCP(C)(=O)CC5)c([N+](=O)[O-])c4)c(Oc4cnc5[nH]ccc5c4)c3)CC2)=C(c2ccc(Cl)cc2)C1` (centres unmarked) [Example 20, 2-((1H-pyrrolo[2,3-b]pyridin-5-yl)oxy)-4-(4-((4′-chloro-5,5-dimethyl-3,4,5,6-tetrahydro-[1,1′-biphenyl]-2-yl)methyl)piperazin-1-yl)-N-((4-((1-fluoro-3-(4-methyl-4-oxido-1,4-azaphosphinan-1-yl)propan-2-yl)amino)-3-nitrophenyl)sulfonyl)benzamide]: the IC50 in the experiment on DOHH2 cells turned out to be 388 nM; with RS4; 11 cells it was 333 nM.

With `CC(=O)N=S1(=O)CCN(CC[C@H](C)Nc2ccc(S(=O)(=O)NC(=O)c3ccc(N4CCN(CC5=C(c6ccc(Cl)cc6)CC(C)(C)CC5)CC4)cc3Oc3cnc4[nH]ccc4c3)cc2S(=O)(=O)C(F)(F)F)CC1` [Example 89, (S)-2-((1H-pyrrolo[2,3-b]pyridin-5-yl)oxy)-N-((4-((4-(1-(acetylimino)-1-oxido-1λ^6-thiomorpholino)butan-2-yl)amino)-3-((trifluoromethyl)sulfonyl)phenyl)sulfonyl)-4-(4-((4′-chloro-5,5-dimethyl-3,4,5,6-tetrahydro-[1,1′-biphenyl]-2-yl)methyl)piperazin-1-yl)benzamide], the IC50 in the experiment with DOHH2 cells was 112 nM; in the experiment on RS4; 11 cells it was 53 nM.
